Measured values: US20110245283A1, “Methods for predicting the response to statins” (priority 2009, published 2011)
Where two headings read alike, the source gives them in different places.

Legend:
LDL [1] = test: Proportion of CAD patients attaining LDL goal (<100 mg/dl) on a statin dose; validation sets stratified by predicted probability; conditions: for Proportion of patients achieving goal: validation set; for Chance of success (reaching goal) of any dose choice: this study
LDL [2] = test: Logistic regression models of attaining LDL goal: odds ratios for concurrent or prior drug doses; type: in vivo, patients; conditions: for OR: odds of goal
Description: G. Covariates for the multivariate model—The following list includes the predictors one or more of which may be tested in the multivariate models. • 1. AGE: (expressed in units of 10 years) at time that the new statin prescription was released • 2. GENDER, E. G., MALE: 1=yes, 0=no • 3. BMI (kg/M^2): last value before release date • 4. HBA1C (hemoglobin Alc): last value before release date • 5. PLDL: preceding LDL level expressed in e.g. 10 mg/dl units • 6. Statins • a. PLOVA: prior daily dose of lovastatin expressed in e.g. 10 mg units • b. […] For additional drugs: • a. AMIODOSE: amiodarone dose in mg/day • b. CARBDOSE: carbemazepine dose in mg/day • c. PIOGDOSE: pioglitazone dose expressed as number of 15 mg doses per day • d. […] METFDOSE: metformin dose expressed as number of 1000 mg doses per day • f. PHENDOSE: phenyloin dose in mg/day • g. RISPDOSE: risperidone dose in mg/day • h. ROSIDOSE: rosiglitazone dose in mg/day • i.
Body mass index (BMI) was chosen as a covariate of statin response because obese patients tend to consume a diet high in cholesterol. It was hypothesized that they would respond less well to statins because their hypercholesterolemia was more likely to be mediated by dietary indiscretion than excessive LDL synthesis. […] Metformin and the thiazolidinediones were chosen because they reduce LDL levels in diabetic patients through mechanisms that may or may not be affected by concurrent statin treatment. The remaining non-statin drugs were chosen because they are commonly used drugs that potentiate the effect of statins. They were selected by reviewing the official on-line VA pharmaceutical reference (Micromedex®) for major interactions mediated by impaired statin metabolism. […] The daily dose of the non-statin drug was calculated by the method described in Section B.
H. Assembling the predictor file—The patient identifier was used to link the new statin prescription type and dose, the preceding LDL above goal, and the type and dose of the previous statin (if any) with the patient's most recent HbA1c, most recent BMI, and the daily doses of 9 drugs with major statin interactions that were active at the time the new prescription was released.
The dependent variable was attainment of goal (LDL <100 mg/dl). […] Step selections were based upon the maximal likelihood method with α<0.15 to enter and ≧0.15 to remove.

LDL [3] = conditions: cited from earlier work

CCC(C)(C)C(=O)O[C@H]1C[C@@H](C)C=C2C=C[C@H](C)[C@H](CC[C@@H]3C[C@@H](O)CC(=O)O3)[C@H]21 [Simvastatin, simvastatin]
Proportion of patients achieving goal (LDL [1]; Model 1, simvastatin 10 mg, predicted probability 0-19%): 14.3%
Proportion of patients achieving goal (LDL [1]; Model 1, simvastatin 10 mg, predicted probability 20-39%): 31.8%
Proportion of patients achieving goal (LDL [1]; Model 1, simvastatin 10 mg, predicted probability 40-59%): 57.6%
Proportion of patients achieving goal (LDL [1]; Model 1, simvastatin 10 mg, predicted probability 60-79%): 69.7%
Proportion of patients achieving goal (LDL [1]; Model 1, simvastatin 10 mg, predicted probability 80-100%): 100%
Proportion of patients achieving goal (LDL [1]; Model 1, simvastatin 20 mg, predicted probability 0-19%): 11.1%
Proportion of patients achieving goal (LDL [1]; Model 1, simvastatin 20 mg, predicted probability 20-39%): 32.9%
Proportion of patients achieving goal (LDL [1]; Model 1, simvastatin 20 mg, predicted probability 60-79%): 66.2%
Proportion of patients achieving goal (LDL [1]; Model 1, simvastatin 40 mg, Overall): 57.0%
Proportion of patients achieving goal (LDL [1]; Model 1, simvastatin 40 mg, predicted probability 0-19%): 36.4%
Proportion of patients achieving goal (LDL [1]; Model 1, simvastatin 40 mg, predicted probability 20-39%): 30.4%
Proportion of patients achieving goal (LDL [1]; Model 1, simvastatin 40 mg, predicted probability 40-59%): 54.2%
Proportion of patients achieving goal (LDL [1]; Model 1, simvastatin 40 mg, predicted probability 60-79%): 67.2%
Proportion of patients achieving goal (LDL [1]; Model 1, simvastatin 40 mg, predicted probability 80-100%): 0%
Proportion of patients achieving goal (LDL [1]; Model 1, simvastatin 80 mg, Overall): 61.9%
Proportion of patients achieving goal (LDL [1]; Model 1, simvastatin 80 mg, predicted probability 20-39%): 42.7%
Proportion of patients achieving goal (LDL [1]; Model 1, simvastatin 80 mg, predicted probability 40-59%): 42.7%
Proportion of patients achieving goal (LDL [1]; Model 1, simvastatin 80 mg, predicted probability 60-79%): 68.9%
Proportion of patients achieving goal (LDL [1]; Model 1, simvastatin 80 mg, predicted probability 80-100%): 74.3%
Proportion of patients achieving goal (LDL [1]; Simvastatin 10 mg [A] model, predicted probability 0-19%): 8.3%
Proportion of patients achieving goal (LDL [1]; Simvastatin 10 mg [A] model, predicted probability 20-39%): 29.7%
Proportion of patients achieving goal (LDL [1]; Simvastatin 10 mg [A] model, predicted probability 40-59%): 62.1%
Proportion of patients achieving goal (LDL [1]; Simvastatin 10 mg [A] model, predicted probability 60-79%): 68.6%
Proportion of patients achieving goal (LDL [1]; Simvastatin 10 mg [A] model, predicted probability 80-100%): 75.0%
Proportion of patients achieving goal (LDL [1]; Simvastatin 10 mg [B] model, Overall): 52.1%
Proportion of patients achieving goal (LDL [1]; Simvastatin 10 mg [B] model, predicted probability 0-19%): 10.0%
Proportion of patients achieving goal (LDL [1]; Simvastatin 10 mg [B] model, predicted probability 20-39%): 26.3%
Proportion of patients achieving goal (LDL [1]; Simvastatin 10 mg [B] model, predicted probability 40-59%): 58.8%
Proportion of patients achieving goal (LDL [1]; Simvastatin 10 mg [B] model, predicted probability 60-79%): 70.6%
Proportion of patients achieving goal (LDL [1]; Simvastatin 10 mg [B] model, predicted probability 80-100%): 100%
Proportion of patients achieving goal (LDL [1]; Simvastatin 10 mg [C] model, predicted probability 0-19%): 11.8%
Proportion of patients achieving goal (LDL [1]; Simvastatin 10 mg [C] model, predicted probability 20-39%): 31.8%
Proportion of patients achieving goal (LDL [1]; Simvastatin 10 mg [C] model, predicted probability 40-59%): 60.0%
Proportion of patients achieving goal (LDL [1]; Simvastatin 10 mg [C] model, predicted probability 60-79%): 74.2%
Proportion of patients achieving goal (LDL [1]; Simvastatin 10 mg [C] model, predicted probability 80-100%): 75.0%
Proportion of patients achieving goal (LDL [1]; Simvastatin 20 mg [C] model, predicted probability 0-19%): 10.5%
Proportion of patients achieving goal (LDL [1]; Simvastatin 20 mg [C] model, predicted probability 20-39%): 35.1%
Proportion of patients achieving goal (LDL [1]; Simvastatin 20 mg [C] model, predicted probability 60-79%): 65.3%
Proportion of patients achieving goal (LDL [1]; Simvastatin 40 mg model, Overall): 57.4%
Proportion of patients achieving goal (LDL [1]; Simvastatin 40 mg model, predicted probability 0-19%): 20.0%
Proportion of patients achieving goal (LDL [1]; Simvastatin 40 mg model, predicted probability 20-39%): 38.6%
Proportion of patients achieving goal (LDL [1]; Simvastatin 40 mg model, predicted probability 40-59%): 54.6%
Proportion of patients achieving goal (LDL [1]; Simvastatin 40 mg model, predicted probability 60-79%): 67.0%
Proportion of patients achieving goal (LDL [1]; Simvastatin 40 mg model, predicted probability 80-100%): 65.0%
Proportion of patients achieving goal (LDL [1]; Simvastatin 80 mg model, Overall): 61.9%
Proportion of patients achieving goal (LDL [1]; Simvastatin 80 mg model, predicted probability 20-39%): 41.7%
Proportion of patients achieving goal (LDL [1]; Simvastatin 80 mg model, predicted probability 40-59%): 41.9%
Proportion of patients achieving goal (LDL [1]; Simvastatin 80 mg model, predicted probability 60-79%): 72.8%
Proportion of patients achieving goal (LDL [1]; Simvastatin 80 mg model, predicted probability 80-100%): 70.8%
Chance of success (reaching goal) of any dose choice (LDL [1]; all choices except 80 mg daily): ≤ 60%
Chance of success (reaching goal) of any dose choice (LDL [1]; all doses): ≤ 62%
Reduction of odds of reaching goal (LDL [2]; for every 10 mg/day in the previous simvastatin dose, simvastatin 20 model): 70%
OR (LDL [2]; Model 1, Simvastatin 10 mg, per 10 mg/day): 0.130
OR (LDL [2]; Model 1, Simvastatin 20 mg, per 10 mg/day): 0.355
OR (LDL [2]; Model 1, Simvastatin 40 mg, per 10 mg/day): 0.771
OR (LDL [2]; Model 1, Simvastatin 80 mg, per 10 mg/day): 0.900
OR (LDL [2]; Simvastatin 10 mg [B] model (includes BMI; n = 136), per dose increment): 0.0593
OR (LDL [2]; Simvastatin 10 mg [C] model (excludes BMI; n = 219), per dose increment): 0.149
OR (LDL [2]; Simvastatin 20 mg model (n = 374), per dose increment): 0.356
OR (LDL [2]; Simvastatin 40 mg model (n = 698), per dose increment): 0.788
OR (LDL [2]; Simvastatin 80 mg model (n = 481), per dose increment): 0.887

CC(C)c1c(C(=O)Nc2ccccc2)c(-c2ccccc2)c(-c2ccc(F)cc2)n1CC[C@@H](O)C[C@@H](O)CC(=O)O [Atorva, atorvastatin]
Average LDL reduction (LDL [3]; Dose 10 mg): 36%
Average LDL reduction (LDL [3]; Dose 20 mg): 46%
Average LDL reduction (LDL [3]; Dose 40 mg): 51%
Average LDL reduction (LDL [3]; Dose 80 mg): 54%

CC[C@H](C)C(=O)O[C@H]1C[C@H](O)C=C2C=C[C@H](C)[C@H](CC[C@@H](O)C[C@@H](O)CC(=O)O)[C@H]21 [Prava, pravastatin]
Average LDL reduction (LDL [3]; Dose 10 mg): 19%
Average LDL reduction (LDL [3]; Dose 20 mg): 24%
Average LDL reduction (LDL [3]; Dose 40 mg): 34%
Average LDL reduction (LDL [3]; Dose 80 mg): 40%

CC(C)c1nc(N(C)S(C)(=O)=O)nc(-c2ccc(F)cc2)c1/C=C/[C@@H](O)C[C@@H](O)CC(=O)O [Rosuva, rosuvastatin]
Average LDL reduction (LDL [3]; Dose 5 mg): 43%
Average LDL reduction (LDL [3]; Dose 10 mg): 50%
Average LDL reduction (LDL [3]; Dose 20 mg): 53%
Average LDL reduction (LDL [3]; Dose 40 mg): 62%

CC(C)n1c(/C=C/C(O)CC(O)CC(=O)O)c(-c2ccc(F)cc2)c2ccccc21 (stereo not shown) [Fluva, fluvastatin]
Average LDL reduction (LDL [3]; Dose 20 mg): 17%
Average LDL reduction (LDL [3]; Dose 40 mg): 23%
Average LDL reduction (LDL [3]; Dose 80 mg): 33%
